Measured values reported in US9302999B2, “Substituted triazoles as herbicides” (E. I. DU PONT DE NEMOURS AND COMPANY, priority 2012, dated 2016).
Like-named read-outs stand apart in the source and are kept apart here.

What was measured:
Assay type in all cases: in vivo
[1] = test system: deadnettle (henbit deadnettle, Lamium amplexicaule); assay: Test D pre-/postemergence: deadnettle
From the text: (§1) Seeds of plant species selected from bluegrass (annual bluegrass, Poa annua), blackgrass (Alopecurus myosuroides), canarygrass (Phalaris minor), chickweed (common chickweed, Stellaria media), galium (catchweed bedstraw, Galium aparine), bromegrass, downy (downy bromegrass, Bromus tectorum), field poppy (Papaver rhoeas), field violet (Viola arvensis), foxtail, green (green foxtail, Setaria viridis), deadnettle (henbit deadnettle, Lamium amplexicaule), ryegrass, Italian (Italian ryegrass, Lolium multiflorum), kochia (Kochia scoparia), lambsquarters (Chenopodium album), oilseed rape (Brassica napus), pigweed (Amaranthus retroflexus), Russian thistle (Salsola iberica), chamomile (scentless chamomile, Matricaria inodora), speedwell (bird's-eye speedwell, Veronica persica), barley, spring (spring barley, Hordeum vulgare), wheat, spring (spring wheat, Triticum aestivum), buckwheat, wild (wild buckwheat, Polygonum convolvulus), mustard, wild (wild mustard, Sinapis arvensis), oat, wild (wild oat, Avena fatua), radish, wild (wild radish, Raphanus raphanistrum), windgrass (Apera spica-venti), barley, winter (winter barley, Hordeum vulgare), and wheat, winter (winter wheat, Triticum aestivum) were planted into a silt loam soil and treated preemergence with test chemicals formulated in a non-phytotoxic solvent mixture which included a surfactant. At the same time, these same crop and weed species were planted in pots containing the planting medium comprising spaghnum peat moss, vermiculite, wetting agent and starter nutrients and treated with postemergence applications of the test chemicals formulated in the same manner. Plants ranged in height from 2 to 18 cm (1- to 4-leaf stage).
(§2) Treated plants and controls were maintained in a controlled growth environment for 14 to 21 days after which time all species were compared to controls and visually evaluated. Plant response ratings, summarized in Table D, are based on a scale of 0 to 100 where 0 is no effect and 100 is complete control. A dash (-) response means no test result.

[2] = test system: canarygrass (Phalaris minor); assay: Test D pre-/postemergence: canarygrass
From the text: as §1, §2

[3] = test system: goosegrass (Eleusine indica); assay: Test C pre-/postemergence: goosegrass
From the text: Seeds of plant species selected from blackgrass (Alopecurus myosuroides), bromegrass, downy (downy bromegrass, Bromus tectorum), foxtail, green (green foxtail, Setaria viridis), ryegrass, Italian (Italian ryegrass, Lolium multiflorum), winter wheat (Triticum aestivum), wild oat (Avena fatua), galium (catchweed bedstraw, Galium aparine), bermudagrass (Cynodon dactylon), surinam grass (Brachiaria decumbens), cocklebur (common cocklebur, Xanthium strumarium), corn (Zea mays), large crabgrass (Digitaria sanguinalis), woolly cupgrass (Eriochloa villosa), foxtail, giant (giant foxtail, Setaria faberii), goosegrass (Eleusine indica), johnsongrass (Sorghum halepense), kochia (Kochia scoparia), lambsquarters (Chenopodium album), morningglory (Ipomoea coccinea), nightshade (eastern black nightshade, Solanum ptycanthum), nutsedge, yellow (yellow nutsedge, Cyperus esculentus), pigweed (Amaranthus retroflexus), ragweed (common ragweed, Ambrosia elation), soybean (Glycine max), common (oilseed) sunflower (Helianthus annuus), Russian thistle (Salsola kali) and velvetleaf (Abutilon theophrasti) were planted into a blend of loam soil and sand and treated preemergence with test chemicals formulated in a non-phytotoxic solvent mixture which included a surfactant.
At the same time, plants selected from these crop and weed species and also barley (winter barley, Hordeum vulgare), canarygrass (Phalaris minor), chickweed (common chickweed, Stellaria media) windgrass (Apera spica-venti) and deadnettle (henbit deadnettle, Lamium amplexicaule) were planted in pots containing Redi-Earth® planting medium (Scotts Company, 14111 Scottslawn Road, Marysville, Ohio 43041) comprising spaghnum peat moss, vermiculite, wetting agent and starter nutrients and treated with postemergence applications of test chemicals formulated in the same manner. Plants ranged in height from 2 to 18 cm (1- to 4-leaf stage) for postemergence treatments.
as §2, with “greenhouse” for “controlled growth environment”, “13” for “14”, “15 days,” for “21 days”, “C,” for “D,”

[4] = test system: ducksalad (Heteranthera limosa); assay: Test C flooded paddy test: ducksalad; details: scale 0 to 100 (0 no effect, 100 complete control); for pest or weed control at 62 g/ha / pest or weed control at 125 g/ha / pest or weed control at 250 g/ha / pest or weed control at 31 g/ha: Heteranthera limosa, read-out: Plant response rating, Ducksalad
Summary of the method: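 Rating: visual, 0–100 (100 = complete control), versus untreated controls after 13 to 15 greenhouse days. Treatment went into paddy water held at 3 cm over the soil, on plants grown to two leaves.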

[5] = test system: wheat, spring (spring wheat, Triticum aestivum); assay: Test D pre-/postemergence: wheat, spring
From the text: as §1, §2

[6] = test system: bluegrass (annual bluegrass, Poa annua); assay: Test D pre-/postemergence: bluegrass
From the text: as §1, §2

[7] = Postemergence, 31 g ai/ha, scale 0 to 100 (0 no effect, 100 complete control)
[8] = Postemergence, 62 g ai/ha, scale 0 to 100 (0 no effect, 100 complete control)
[9] = Postemergence, 125 g ai/ha, scale 0 to 100, 0 no effect, 100 complete control
[10] = Postemergence, 250 g ai/ha, scale 0 to 100 (0 no effect, 100 complete control)
[11] = Postemergence, 16 g ai/ha, scale 0 to 100
[12] = Preemergence, 16 g ai/ha, scale 0 to 100 (0 no effect, 100 complete control)
[13] = Preemergence, 31 g ai/ha, scale 0 to 100 (0 no effect, 100 complete control)
[14] = Preemergence, 62 g ai/ha, scale 0 to 100
[15] = Preemergence, 125 g ai/ha, scale 0 to 100
[16] = Preemergence, 250 g ai/ha, scale 0 to 100
[17] = Postemergence, 250 g ai/ha, scale 0 to 100
[18] = Flood (flooded paddy test), 62 g ai/ha, visual rating after 13 to 15 days
[19] = Flood (flooded paddy test), 125 g ai/ha, visual rating after 13 to 15 days
[20] = Flood (flooded paddy test), 250 g ai/ha, visual rating after 13 to 15 days

For `Cc1nn(-c2ccc(F)cc2)nc1Cc1ccnc(C(F)(F)F)c1` [Compound 16, 4-[[2-(4-fluorophenyl)-5-methyl-2H-1,2,3-triazol-4-yl]methyl]-2-(trifluoromethyl)pyridine], the “Plant response rating: Deadnettle” value [1, 7] was 25, the “Plant response rating: Deadnettle” value [1, 8] was 45 and the “Plant response rating: Deadnettle” value [1, 9] was 50. The “Plant response rating: Deadnettle” value [1, 10] was 90, the “Plant response rating, Deadnettle” value [1, 11] was 10 and the “Plant response rating, Deadnettle” value [1, 12] was 0. The “Plant response rating, Deadnettle” value [1, 13] was 40, the “Plant response rating, Deadnettle” value [1, 14] was 60 and the “Plant response rating, Deadnettle” value [1, 15] was 100. For the same compound, the “Plant response rating, Deadnettle” value [1, 16] was 100, the “Plant response rating: Canarygrass” value [2, 7] was 30 and the “Plant response rating: Canarygrass” value [2, 8] was 35. The “Plant response rating: Canarygrass” value [2, 9] was 40, the “Plant response rating: Canarygrass” value [2, 10] was 80 and the “Plant response rating, Canarygrass” value [2, 11] was 20. The “Plant response rating, Canarygrass” value [2, 12] was 20, the “Plant response rating, Canarygrass” value [2, 13] was 40 and the “Plant response rating, Canarygrass” value [2, 14] was 50. For the same compound, the “Plant response rating, Canarygrass” value [2, 15] was 90, the “Plant response rating, Canarygrass” value [2, 16] was 100 and the “Plant response rating, Goosegrass” value [3, 7] was 5. The “Plant response rating, Goosegrass” value [3, 8] was 5, the “Plant response rating, Goosegrass” value [3, 9] was 10 and the “Plant response rating, Goosegrass” value [3, 17] was 10. For the same compound, the pest or weed control at 62 g/ha [4, 18] was 85%, the pest or weed control at 125 g/ha [4, 19] was 95% and the pest or weed control at 250 g/ha [4, 20] was 100%. The pest or weed control at 31 g/ha ([4]; Flood, 31 g ai/ha) was 70%, the “Plant response rating: Wheat, Spring” value [5, 7] was 10 and the “Plant response rating: Wheat, Spring” value [5, 8] was 10. The “Plant response rating: Wheat, Spring” value [5, 9] was 15, the “Plant response rating: Wheat, Spring” value [5, 10] was 20 and the “Plant response rating, Wheat, Spring” value [5, 11] was 5. For the same compound, the “Plant response rating, Wheat, Spring” value [5, 12] was 0, the “Plant response rating, Wheat, Spring” value [5, 13] was 0 and the “Plant response rating, Wheat, Spring” value [5, 14] was 0. For the same compound, the “Plant response rating, Wheat, Spring” value [5, 15] was 5, the “Plant response rating, Wheat, Spring” value [5, 16] was 10 and the “Plant response rating: Bluegrass” value [6, 7] was 20. The “Plant response rating: Bluegrass” value [6, 8] was 40, the “Plant response rating: Bluegrass” value [6, 9] was 60 and the “Plant response rating: Bluegrass” value [6, 10] was 70. For the same compound, the “Plant response rating, Bluegrass” value [6, 11] was 10, the “Plant response rating, Bluegrass” value [6, 12] was 0 and the “Plant response rating, Bluegrass” value [6, 13] was 20. The “Plant response rating, Bluegrass” value [6, 14] was 20, the “Plant response rating, Bluegrass” value [6, 15] was 30 and the “Plant response rating, Bluegrass” value [6, 16] was 100.

For `COc1nn(-c2ccc(C(F)(F)F)cc2)nc1Cn1ccc(C(F)(F)F)n1` [Compound 17, 4-methoxy-2-[4-(trifluoromethyl)phenyl]-5-[[3-(trifluoromethyl)-1H-pyrazol-1-yl]methyl]-2H-1,2,3-triazole], the pest or weed control at 62 g/ha [4, 18] was 0%, the pest or weed control at 125 g/ha [4, 19] was 0% and the pest or weed control at 250 g/ha [4, 20] was 20%. The pest or weed control at 31 g/ha ([4]; Flood, 31 g ai/ha) was 0%.

`Cc1nn(-c2ccc(C(F)(F)F)cc2)nc1Cc1ccnc(C(F)(F)F)c1` [Compound 47, 4-[[5-methyl-2-[4-(trifluoromethyl)phenyl]-2H-1,2,3-triazol-4-yl]methyl]-2-(trifluoromethyl)pyridine] was tested, and the “Plant response rating, Goosegrass” value [3, 7] was 5, the “Plant response rating, Goosegrass” value [3, 8] was 35 and the “Plant response rating, Goosegrass” value [3, 9] was 70. For the same compound, the “Plant response rating, Goosegrass” value [3, 17] was 75, the “Plant response rating, Goosegrass” value ([3]; Preemergence, 31 g ai/ha, scale of 0 to 100, 0 is no effect, 100 is complete control) was 98 and the “Plant response rating, Goosegrass” value ([3]; Preemergence, 62 g ai/ha, scale of 0 to 100, 0 is no effect, 100 is complete control) was 100. The “Plant response rating, Goosegrass” value ([3]; Preemergence, 125 g ai/ha, scale 0 to 100, 0 no effect, 100 complete control) was 100, the “Plant response rating, Goosegrass” value ([3]; Preemergence, 250 g ai/ha, scale 0 to 100, 0 no effect, 100 complete control) was 100 and the pest or weed control at 62 g/ha [4, 18] was 90%. The pest or weed control at 125 g/ha [4, 19] was 90%, the pest or weed control at 250 g/ha [4, 20] was 90% and the pest or weed control at 31 g/ha ([4]; Flood, 31 g ai/ha) was 0%.

`Cc1nn(-c2ccc(C(F)(F)F)cc2)nc1Cc1cccc(C(F)(F)F)c1` [Compound 124] was tested, and the “Plant response rating, Goosegrass” value ([3]; Postemergence, 16 g ai/ha, scale 0 to 100, 0 no effect, 100 complete control) was 25, the “Plant response rating, Goosegrass” value [3, 7] was 45 and the “Plant response rating, Goosegrass” value [3, 8] was 55. For the same compound, the “Plant response rating, Goosegrass” value [3, 9] was 65, the “Plant response rating, Ducksalad” value [4, 19] was 90 and the “Plant response rating, Ducksalad” value [4, 20] was 90. The “Plant response rating, Ducksalad” value ([4]; Flood, 31 g ai/ha) was 20 and the “Plant response rating, Ducksalad” value ([4]; Flood, 62 g ai/ha) was 90.

In the case of `CCc1nn(-c2ccc(C(F)(F)F)cc2)nc1Oc1cccc(OC(F)(F)F)c1` [Compound 125, 4-ethyl-5-[3-(trifluoromethoxy)phenoxy]-2-[4-(trifluoromethyl)phenyl]-2H-1,2,3-triazole], the pest or weed control at 125 g/ha [4, 19] is reported as 75%, the pest or weed control at 250 g/ha [4, 20] is reported as 90% and the pest or weed control at 31 g/ha ([4]; Flood, 31 g ai/ha) is reported as 0%. The pest or weed control at 62 g/ha ([4]; Flood, 62 g ai/ha) was 0%.
